This note sets out measurements from the supplement of paper PMC12076712.

Assay in all cases: pIC50, kinobeads binding competition
One experiment addresses ABL2 (UniProt P42684). In outline: (§1)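 Either living Jurkat cells (60 min at 37 °C, then lysis) or lysates (60 min at 4 °C) were treated with nine compound concentrations from a top of 30 μM, in 1:4 steps for cells and 1:5 steps for lysates. The lysates were from Jurkat cells or a 1:1:1:1 mix of HEK293, K-562, HepG2 and placenta. Kinobeads-bound proteins were digested and quantified by TMT10 LC-MS/MS. pIC50 was calculated by logistic dose-response fitting (R drc package) of fold changes relative to vehicle, in biological duplicates.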

For a further experiment, the target named is BMPR1B (UniProt O00238). The following applies: cell material: Lysate mix. In outline: as §1
Sequence of BMPR1B (O00238 whole entry): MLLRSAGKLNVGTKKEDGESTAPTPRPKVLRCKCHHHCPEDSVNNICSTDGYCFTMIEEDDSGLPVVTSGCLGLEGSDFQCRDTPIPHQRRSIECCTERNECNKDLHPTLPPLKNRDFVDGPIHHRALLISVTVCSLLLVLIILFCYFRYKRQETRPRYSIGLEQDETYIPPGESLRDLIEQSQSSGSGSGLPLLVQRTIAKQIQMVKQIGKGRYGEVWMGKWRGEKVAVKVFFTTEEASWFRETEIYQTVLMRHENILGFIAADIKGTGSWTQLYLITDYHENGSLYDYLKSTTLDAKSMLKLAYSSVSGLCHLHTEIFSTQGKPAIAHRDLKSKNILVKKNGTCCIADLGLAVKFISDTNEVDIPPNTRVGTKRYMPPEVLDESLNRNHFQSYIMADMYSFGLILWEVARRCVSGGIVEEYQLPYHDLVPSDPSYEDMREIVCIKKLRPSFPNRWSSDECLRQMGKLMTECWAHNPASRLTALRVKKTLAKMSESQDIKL
A further experiment deals with T1, BMPR2 (UniProt Q13873).
T1 sequence (whole entry): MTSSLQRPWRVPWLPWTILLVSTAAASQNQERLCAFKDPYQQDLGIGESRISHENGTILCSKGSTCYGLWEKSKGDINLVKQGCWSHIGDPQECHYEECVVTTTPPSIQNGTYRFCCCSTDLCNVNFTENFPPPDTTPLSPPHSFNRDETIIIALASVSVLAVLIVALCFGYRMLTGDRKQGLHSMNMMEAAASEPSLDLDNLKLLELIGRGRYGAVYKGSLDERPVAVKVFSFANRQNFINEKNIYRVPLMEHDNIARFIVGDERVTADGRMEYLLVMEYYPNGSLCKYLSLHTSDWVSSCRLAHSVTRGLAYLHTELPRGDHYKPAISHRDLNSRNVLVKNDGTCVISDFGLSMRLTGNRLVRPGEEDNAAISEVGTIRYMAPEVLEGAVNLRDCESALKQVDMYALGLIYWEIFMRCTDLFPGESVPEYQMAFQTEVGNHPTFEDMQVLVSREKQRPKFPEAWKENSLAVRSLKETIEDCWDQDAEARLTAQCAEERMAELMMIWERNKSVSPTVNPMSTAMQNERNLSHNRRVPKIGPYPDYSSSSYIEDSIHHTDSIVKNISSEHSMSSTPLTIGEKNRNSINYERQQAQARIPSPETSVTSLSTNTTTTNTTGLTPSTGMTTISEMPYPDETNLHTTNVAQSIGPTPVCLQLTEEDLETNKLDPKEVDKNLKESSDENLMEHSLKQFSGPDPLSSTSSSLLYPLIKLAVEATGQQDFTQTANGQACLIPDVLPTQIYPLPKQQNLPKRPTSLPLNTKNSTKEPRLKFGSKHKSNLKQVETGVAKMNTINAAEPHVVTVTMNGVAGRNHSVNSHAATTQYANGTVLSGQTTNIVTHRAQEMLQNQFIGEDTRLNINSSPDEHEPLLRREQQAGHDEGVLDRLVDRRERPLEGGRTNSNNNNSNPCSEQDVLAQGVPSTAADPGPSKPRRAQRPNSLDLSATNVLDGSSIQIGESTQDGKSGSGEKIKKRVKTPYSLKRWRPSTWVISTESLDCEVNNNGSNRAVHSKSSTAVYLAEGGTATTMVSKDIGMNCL
In outline: as §1

Another experiment concerns the target MAP4K4 (UniProt O95819). A digest of the protocol:
as §1

In another experiment the target is T2, UniProt O14920.
T2 sequence (whole entry): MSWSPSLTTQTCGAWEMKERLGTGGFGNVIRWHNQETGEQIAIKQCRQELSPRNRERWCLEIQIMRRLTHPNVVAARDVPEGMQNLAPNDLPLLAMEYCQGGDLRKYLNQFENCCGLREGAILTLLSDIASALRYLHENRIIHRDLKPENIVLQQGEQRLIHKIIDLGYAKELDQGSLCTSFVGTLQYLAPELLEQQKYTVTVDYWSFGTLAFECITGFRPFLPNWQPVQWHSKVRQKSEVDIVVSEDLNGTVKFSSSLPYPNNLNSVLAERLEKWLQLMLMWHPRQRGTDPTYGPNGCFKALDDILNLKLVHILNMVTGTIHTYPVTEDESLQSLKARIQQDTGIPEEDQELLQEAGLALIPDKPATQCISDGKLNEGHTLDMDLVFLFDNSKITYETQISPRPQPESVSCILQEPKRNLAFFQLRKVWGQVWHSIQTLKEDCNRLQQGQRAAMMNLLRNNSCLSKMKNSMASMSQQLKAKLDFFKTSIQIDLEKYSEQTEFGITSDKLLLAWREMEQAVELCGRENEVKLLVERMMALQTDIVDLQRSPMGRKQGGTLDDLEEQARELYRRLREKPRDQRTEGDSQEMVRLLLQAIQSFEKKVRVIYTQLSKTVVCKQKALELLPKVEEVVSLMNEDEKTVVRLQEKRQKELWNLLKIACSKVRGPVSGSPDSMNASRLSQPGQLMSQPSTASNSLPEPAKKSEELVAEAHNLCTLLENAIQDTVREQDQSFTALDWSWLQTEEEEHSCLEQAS
In outline: as §1

For a further experiment, the target named is UniProt Q9P289. A digest of the protocol: as §1
Sequence of UniProt Q9P289 (Q9P289 whole entry, looked up): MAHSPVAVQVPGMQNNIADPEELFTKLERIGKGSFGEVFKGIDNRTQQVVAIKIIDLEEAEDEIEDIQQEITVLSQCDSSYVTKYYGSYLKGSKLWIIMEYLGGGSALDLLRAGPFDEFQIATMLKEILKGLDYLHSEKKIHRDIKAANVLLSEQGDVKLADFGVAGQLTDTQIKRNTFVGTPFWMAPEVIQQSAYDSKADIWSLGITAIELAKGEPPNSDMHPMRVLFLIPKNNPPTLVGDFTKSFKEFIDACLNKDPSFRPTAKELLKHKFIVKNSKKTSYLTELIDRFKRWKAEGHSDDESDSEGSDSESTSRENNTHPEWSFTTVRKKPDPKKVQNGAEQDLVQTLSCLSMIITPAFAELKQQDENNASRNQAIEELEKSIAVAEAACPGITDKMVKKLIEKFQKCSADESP

Sequence of ABL2 (P42684 whole entry): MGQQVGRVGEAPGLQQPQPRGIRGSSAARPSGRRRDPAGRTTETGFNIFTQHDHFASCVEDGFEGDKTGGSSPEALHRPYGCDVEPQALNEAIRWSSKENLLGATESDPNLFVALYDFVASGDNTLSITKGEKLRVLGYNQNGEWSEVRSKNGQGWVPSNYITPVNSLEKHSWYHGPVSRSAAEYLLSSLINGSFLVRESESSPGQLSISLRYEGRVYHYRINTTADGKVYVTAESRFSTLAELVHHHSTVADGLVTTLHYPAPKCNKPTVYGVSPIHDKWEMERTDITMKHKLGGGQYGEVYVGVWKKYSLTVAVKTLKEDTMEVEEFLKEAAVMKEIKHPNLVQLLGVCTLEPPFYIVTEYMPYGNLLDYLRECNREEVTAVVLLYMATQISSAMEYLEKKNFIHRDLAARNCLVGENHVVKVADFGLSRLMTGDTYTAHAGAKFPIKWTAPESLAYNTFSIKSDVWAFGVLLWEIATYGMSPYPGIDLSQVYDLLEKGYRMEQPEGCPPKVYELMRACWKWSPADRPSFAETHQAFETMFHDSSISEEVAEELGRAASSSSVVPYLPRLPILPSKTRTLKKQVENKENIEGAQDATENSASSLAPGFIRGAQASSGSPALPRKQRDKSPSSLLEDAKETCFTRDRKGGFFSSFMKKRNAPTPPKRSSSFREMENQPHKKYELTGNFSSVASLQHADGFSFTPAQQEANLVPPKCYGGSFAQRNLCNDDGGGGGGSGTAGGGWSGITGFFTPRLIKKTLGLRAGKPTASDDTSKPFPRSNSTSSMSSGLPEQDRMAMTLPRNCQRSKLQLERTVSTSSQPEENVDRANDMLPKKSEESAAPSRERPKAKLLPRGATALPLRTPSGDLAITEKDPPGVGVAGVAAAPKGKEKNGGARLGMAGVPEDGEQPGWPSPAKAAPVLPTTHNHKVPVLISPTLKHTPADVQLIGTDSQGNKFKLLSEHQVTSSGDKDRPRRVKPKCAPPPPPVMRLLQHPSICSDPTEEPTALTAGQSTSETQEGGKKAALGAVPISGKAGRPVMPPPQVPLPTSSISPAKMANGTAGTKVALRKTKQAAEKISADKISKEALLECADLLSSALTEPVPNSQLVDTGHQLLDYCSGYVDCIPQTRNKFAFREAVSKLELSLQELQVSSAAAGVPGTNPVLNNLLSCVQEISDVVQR
Sequence of MAP4K4 (O95819 whole entry, looked up): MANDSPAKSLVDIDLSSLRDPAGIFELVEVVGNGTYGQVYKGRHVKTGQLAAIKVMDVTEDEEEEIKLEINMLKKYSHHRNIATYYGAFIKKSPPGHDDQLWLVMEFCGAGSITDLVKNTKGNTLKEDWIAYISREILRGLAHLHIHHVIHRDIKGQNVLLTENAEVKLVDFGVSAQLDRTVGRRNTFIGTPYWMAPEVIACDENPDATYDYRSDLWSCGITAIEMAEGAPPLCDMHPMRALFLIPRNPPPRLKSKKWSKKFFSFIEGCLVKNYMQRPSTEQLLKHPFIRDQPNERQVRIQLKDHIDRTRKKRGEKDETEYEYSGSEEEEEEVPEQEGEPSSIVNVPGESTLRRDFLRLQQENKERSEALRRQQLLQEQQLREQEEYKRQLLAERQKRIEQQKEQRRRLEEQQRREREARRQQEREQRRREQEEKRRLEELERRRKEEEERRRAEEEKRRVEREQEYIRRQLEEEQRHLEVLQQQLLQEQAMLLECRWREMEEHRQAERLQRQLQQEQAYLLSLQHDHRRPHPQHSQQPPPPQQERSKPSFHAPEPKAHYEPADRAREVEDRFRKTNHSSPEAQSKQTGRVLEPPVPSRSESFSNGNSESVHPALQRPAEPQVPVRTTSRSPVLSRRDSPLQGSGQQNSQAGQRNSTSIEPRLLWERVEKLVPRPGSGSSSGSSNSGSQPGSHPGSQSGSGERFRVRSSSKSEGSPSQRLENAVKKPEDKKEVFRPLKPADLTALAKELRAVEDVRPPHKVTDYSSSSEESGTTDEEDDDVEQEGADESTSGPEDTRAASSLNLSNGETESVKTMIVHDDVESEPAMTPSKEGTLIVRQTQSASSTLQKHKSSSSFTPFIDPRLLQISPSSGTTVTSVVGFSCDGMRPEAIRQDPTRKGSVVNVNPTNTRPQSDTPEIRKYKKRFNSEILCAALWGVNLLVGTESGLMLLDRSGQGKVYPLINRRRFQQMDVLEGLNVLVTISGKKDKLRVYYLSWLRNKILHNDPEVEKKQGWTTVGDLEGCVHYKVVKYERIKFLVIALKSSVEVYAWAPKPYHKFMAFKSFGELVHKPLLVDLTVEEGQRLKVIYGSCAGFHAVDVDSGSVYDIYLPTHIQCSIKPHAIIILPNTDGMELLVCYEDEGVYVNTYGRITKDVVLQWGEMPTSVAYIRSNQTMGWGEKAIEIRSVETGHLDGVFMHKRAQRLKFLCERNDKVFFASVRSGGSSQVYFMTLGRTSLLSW

The pIC50 is −log10 of the IC50, conventionally taken in molar units. Consider `C#CCNC(=O)c1cc(Nc2cc(C)[nH]n2)nc(N2CCN(Cc3ccc(S(=O)(=O)F)cc3)CC2)n1`, for which the negative logarithm of the IC50 (pIC50) on ABL2 (cell material: Lysate mix) is 4.64; on BMPR1B, less than 4.52; at BMPR2 (cell material: Lysate mix), less than 4.52; on MAP4K4 (cell material: Lysate mix), less than 4.52; on UniProt O14920 (cell material: Lysate mix), less than 4.52.

As to `O=C(NCCNC(=O)c1cc(Nc2cc(C3CC3)[nH]n2)nc(N2CCN(Cc3ccc(S(=O)(=O)F)cc3)CC2)n1)OC1CC/C=C/CCC1` (stereo not given), the pIC50 at ABL2 (cell material: Jurkat cells) is 5; at ABL2 (cell material: Jurkat lysate), less than 4.52; on ABL2 (cell material: Lysate mix) it was less than 4.52; on BMPR1B, less than 4.52; at BMPR2 (cell material: Jurkat cells), less than 4.52; on BMPR2 (cell material: Jurkat lysate) it was less than 4.52. Further, the negative logarithm of the IC50 (pIC50) at BMPR2 (cell material: Lysate mix) was less than 4.52; on MAP4K4 (cell material: Jurkat cells) it was 5.15; on MAP4K4 (cell material: Jurkat lysate), less than 4.52; at MAP4K4 (cell material: Lysate mix), less than 4.52; at UniProt O14920 (cell material: Jurkat cells) it was less than 4.52; at UniProt O14920 (cell material: Jurkat lysate), less than 4.52. In addition, the pIC50 on UniProt O14920 (cell material: Lysate mix), on UniProt Q9P289 (cell material: Jurkat lysate) and at UniProt Q9P289 (cell material: Lysate mix) was less than 4.52 in each case.

On to `CCNC(=O)c1cc(Nc2cc(C3CC3)[nH]n2)nc(N2CCN(Cc3ccc(S(=O)(=O)F)cc3)CC2)n1`, for which the negative-log IC50 (pIC50) at ABL2 (cell material: Lysate mix) was 5.35; at BMPR1B, 5.08; at BMPR2 (cell material: Lysate mix), less than 4.52; on MAP4K4 (cell material: Lysate mix), less than 4.52; on UniProt O14920 (cell material: Lysate mix) it was less than 4.52.

With `Cc1cc(Nc2cc(C(=O)NCCNC(=O)OC3CC/C=C/CCC3)nc(N3CCN(Cc4ccc(S(=O)(=O)F)cc4)CC3)n2)n[nH]1` (stereo not given), the pIC50 on ABL2 (cell material: Lysate mix), at BMPR1B, at BMPR2 (cell material: Lysate mix), at MAP4K4 (cell material: Lysate mix), at UniProt O14920 (cell material: Lysate mix) and at UniProt Q9P289 (cell material: Lysate mix) was less than 4.52 throughout.

Regarding `CCNC(=O)c1cc(Nc2cc(C)[nH]n2)nc(N2CCN(Cc3ccc(S(=O)(=O)F)cc3)CC2)n1`, the pIC50 at ABL2 (cell material: Lysate mix) is 4.81; on BMPR1B it was less than 4.52; on BMPR2 (cell material: Lysate mix), less than 4.52; at MAP4K4 (cell material: Lysate mix), less than 4.52; on UniProt O14920 (cell material: Lysate mix), less than 4.52.

For `C#CCNC(=O)c1cc(Nc2cc(C3CC3)[nH]n2)nc(N2CCN(Cc3ccc(S(=O)(=O)F)cc3)CC2)n1`, the negative logarithm of the IC50 (pIC50) is 5.87 at ABL2 (cell material: Jurkat cells); 4.65 on ABL2 (cell material: Jurkat lysate); 5.39 on ABL2 (cell material: Lysate mix); 4.78 at BMPR1B; 5.72 at BMPR2 (cell material: Jurkat cells); less than 4.52 on BMPR2 (cell material: Jurkat lysate). The negative logarithm of the IC50 (pIC50) is less than 4.52 at BMPR2 (cell material: Lysate mix); 5.9 on MAP4K4 (cell material: Jurkat cells); less than 4.52 at MAP4K4 (cell material: Jurkat lysate); less than 4.52 at UniProt O14920 (cell material: Jurkat cells); less than 4.52 on UniProt O14920 (cell material: Jurkat lysate); less than 4.52 on UniProt O14920 (cell material: Lysate mix). The pIC50 at UniProt Q9P289 (cell material: Jurkat cells) was 6.36; at UniProt Q9P289 (cell material: Lysate mix) it was less than 4.52.
